Numbers after ± are expanded uncertainties.
Details: 293.15 K; 101.33 kPa; Liquid; transient hot wire

`OCCO` [1,2-ethanediol] gave a thermal conductivity of 0.25 ± 0.004 W/m/K.

Compound `O` [water] has a thermal conductivity of 0.597 ± 0.01 W/m/K.

Reference: the NIST ThermoML archive (doi:10.1016/j.tca.2018.01.008)
